From patent publication US20110045101A1, “FUNGICIDAL SUBSTITUTED AZOLES” (E.I. Du Pont De Nemours and Company, priority 2009, published 2011)
Marks after values point to notes of the source that are not given here.

Columns and labels:
Assay type in all cases: in vivo
Conditions in all cases: 100 = 100% disease control
[1] = test system: Alternaria solani; assay: Test D: tomato early blight, sprayed the day before inoculation, visual disease rating
Method in brief: (§1)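 Ratings reflect a 200 ppm spray (≈500 g/ha) unless marked as 40 ppm. Plants were sprayed to run-off. The spray suspension was acetone/purified water 50/50 containing 250 ppm Trem 014, after first dissolving compound in acetone at 3% of final volume.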

[2] = test system: Puccinia recondita f. sp. tritici; assay: Test I: wheat leaf rust on wheat seedlings, sprayed the day before inoculation, visual disease rating
Method in brief: as §1

[3] = test system: Botrytis cinerea; assay: Test C: tomato Botrytis on tomato seedlings, sprayed the day before inoculation, visual disease rating
Method in brief: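 Disease scored by eye on tomato seedlings inoculated with Botrytis cinerea a day after treatment. Treatment was a run-off spray at 200 ppm (equivalent to 500 g/ha), or 40 ppm where marked, in acetone/water carrying 250 ppm Trem 014.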

[4] = test system: Puccinia recondita f. sp. tritici; assay: Test H: wheat leaf rust, test suspension sprayed after inoculation of wheat seedlings, visual disease rating
Method in brief: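 Wheat seedlings inoculated with P. recondita spores, held 24 h saturated at 20 °C, then 2 days in growth chamber at 20 °C; compound suspension (acetone/water with Trem 014) sprayed to run-off afterwards. Rated visually; 200 ppm (≈500 g/ha) unless marked *, which denotes 40 ppm.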

[5] = test system: Erysiphe graminis f. sp. tritici; assay: Test J: wheat powdery mildew on wheat seedlings, sprayed the day before inoculation, visual disease rating
Method in brief: as §1

[6] = test system: Septoria nodorum; assay: Test F: wheat glume blotch on wheat seedlings, sprayed the day before inoculation, visual disease rating
Method in brief: as §1

[7] = test system: Septoria tritici; assay: Test G: wheat leaf blotch on wheat seedlings, sprayed the day before inoculation, visual disease rating
Method in brief: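 Visual disease ratings taken 19 days after transfer to a 20° C growth chamber, following 48 h in saturated atmosphere at 24° C. Seedlings had been sprayed to run-off one day before spore inoculation. Dose 200 ppm, or 40 ppm where starred.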

[8] = 200 ppm, 0 = no control relative to controls
[9] = 40 ppm (marked *), 0 = no control

Structure (SMILES) | Test D disease control rating [1, 8] | Test I disease control rating [2, 8] | Test C disease control rating [3, 8] | Test H disease control rating [4, 8] | Test J disease control rating [5, 8] | Test F disease control rating [6, 8] | Test G disease control rating [7, 8] | further results
Fc1ccc(-n2cnc(Br)c2-c2c(F)ccc(F)c2F)cc1 [compound 332] | 99% | 96% | 100% | 9% | 99% | 60% | 95% | 
COc1ccc(F)c(-c2c(Cl)nc(C)n2-c2ccc(Br)cc2)c1F [compound 582] | 100% | 99% | 100% | 15% | 100% | 99% | 97% | 
N#Cc1ccc(F)c(-c2c(Cl)nc(Cl)n2-c2ccc(Cl)nc2)c1F [compound 691] |  |  |  |  |  |  |  | Test D disease control rating ([1]; 40 ppm (marked *)): 99* %; Test I disease control rating ([2]; 40 ppm (marked *)): 82* %; Test C disease control rating ([3]; 40 ppm (marked *)): 99* %; Test H disease control rating ([4]; 40 ppm (marked *)): 39* %; Test J disease control rating ([5]; 40 ppm (marked *)): 64* %; Test F disease control rating ([6]; 40 ppm (marked *)): 51* %; Test G disease control rating ([7]; 40 ppm (marked *)): 95* %
Fc1cc(-n2c(Br)nc(Br)c2-c2c(F)ccc(F)c2F)ccc1Cl [compound 382] |  |  |  |  |  |  |  | Test D disease control rating [1, 9]: 99* %; Test I disease control rating [2, 9]: 95* %; Test C disease control rating [3, 9]: 100* %; Test H disease control rating [4, 9]: 0* %; Test J disease control rating [5, 9]: 97* %; Test F disease control rating [6, 9]: 0* %; Test G disease control rating [7, 9]: 96* %
Cc1nc(Br)c(-c2c(F)cccc2F)n1-c1ccc2ccccc2c1 [compound 336] |  |  |  |  |  |  |  | Test D disease control rating [1, 9]: 88* %; Test I disease control rating [2, 9]: 74* %; Test C disease control rating [3, 9]: 99* %; Test H disease control rating [4, 9]: 0* %; Test J disease control rating [5, 9]: 87* %; Test F disease control rating [6, 9]: 99* %; Test G disease control rating [7, 9]: 96* %
COc1cc(F)c(-c2c(Br)nn(C)c2-c2ccc(Cl)cc2)c(F)c1 [compound 424] | 100% | 94% | 100% | 0% | 100% | 99% | 100% | 
COc1ccc(F)c(-c2c(Cl)nc(Br)n2-c2ccc(F)cc2)c1F [compound 314] | 100% | 100% | 99% | 32% | 100% | 100% | 93% | 
COc1ccc(F)c(-c2c(Cl)ncn2-c2ccc(Br)cc2)c1F [compound 528] | 100% | 96% | 100% | 15% | 100% | 99% | 99% | 
Cc1nc(Br)c(Cc2c(F)cc(F)cc2F)n1-c1cc(Cl)cc(Cl)c1 [compound 541] | 0% | 0% | 0% | 0% | 0% | 0% | 0% | 
Cc1nc(C)n(-c2ccc(Cl)c(F)c2)c1-c1c(F)ccc(F)c1F [compound 415] |  |  |  |  |  |  |  | Test D disease control rating [1, 9]: 100* %; Test I disease control rating [2, 9]: 94* %; Test C disease control rating [3, 9]: 100* %; Test H disease control rating [4, 9]: 0* %; Test J disease control rating [5, 9]: 98* %; Test F disease control rating [6, 9]: 0* %; Test G disease control rating [7, 9]: 99* %
Cc1nc(Cl)n(-c2ccc(F)cc2)c1-c1c(F)ccc(F)c1F [compound 413] |  |  |  |  |  |  |  | Test D disease control rating [1, 9]: 99* %; Test I disease control rating [2, 9]: 0* %; Test C disease control rating [3, 9]: 100* %; Test H disease control rating [4, 9]: 9* %; Test J disease control rating [5, 9]: 0* %; Test F disease control rating [6, 9]: 0* %; Test G disease control rating [7, 9]: 14* %
COc1ccc(F)c(-c2c(C)nc(Cl)n2-c2ccc(Cl)cc2)c1F [compound 526] | 100% | 100% | 100% | 0% | 100% | 100% | 99% | 
COc1cc(F)c(-c2c(C)nc(Br)n2-c2ccc(OC)nc2)c(F)c1 [compound 736] | 100% | 100% | 99% | 99% | 100% | 97% | 100% | 
COc1ccc(F)c(-c2c(Cl)nc(Cl)n2-c2ccc(Br)cc2)c1F [compound 562] | 100% | 99% | 100% | 0% | 100% | 99% | 100% | 
Cc1nc(Cl)c(Cc2c(F)cc(F)cc2F)n1-c1c(Cl)cccc1Cl [compound 537] | 76% | 100% | 99% | 9% | 99% | 60% | 97% | 
Fc1cccc(-n2c(Cl)nc(Cl)c2-c2c(F)ccc(F)c2F)c1 [compound 366] | 100% | 99% | 100% | 41% | 97% | 64% | 91% | 
N#Cc1ccc(F)c(-c2cnc(Cl)n2-c2ccc(Cl)nc2)c1F [compound 697] | 91% | 19% | 100% | 8% | 93% | 0% | 98% | 
COc1ccc(F)c(-c2c(Cl)nc(C)n2Cc2ccc(Cl)cc2)c1F [compound 294] |  |  |  |  |  |  |  | Test D disease control rating ([1]; 200 ppm, 0 = no control): 100%; Test I disease control rating ([2]; 200 ppm, 0 = no control): 98%; Test C disease control rating ([3]; 200 ppm, 0 = no control): 99%; Test H disease control rating ([4]; 200 ppm, 0 = no control): 11%; Test J disease control rating ([5]; 200 ppm, 0 = no control): 97%; Test F disease control rating ([6]; 200 ppm, 0 = no control): 98%; Test G disease control rating ([7]; 200 ppm, 0 = no control): 96%
Fc1ccc(F)c(-c2c(Cl)nc(Cl)n2Cc2ccc(Cl)cc2)c1F [compound 285] |  |  |  |  |  |  |  | Test D disease control rating ([1]; 200 ppm, 0 = no control): 85%; Test I disease control rating ([2]; 200 ppm, 0 = no control): 100%; Test C disease control rating ([3]; 200 ppm, 0 = no control): 99%; Test H disease control rating ([4]; 200 ppm, 0 = no control): 98%; Test J disease control rating ([5]; 200 ppm, 0 = no control): 100%; Test F disease control rating ([6]; 200 ppm, 0 = no control): 83%; Test G disease control rating ([7]; 200 ppm, 0 = no control): 94%
COc1cc(F)c(-n2c(Cl)nc(C)c2-c2cccc(F)c2)c(F)c1 [compound 686] |  |  |  |  |  |  |  | Test D disease control rating ([1]; 40 ppm (marked *)): 100* %; Test I disease control rating ([2]; 40 ppm (marked *)): 99* %; Test C disease control rating ([3]; 40 ppm (marked *)): 100* %; Test H disease control rating ([4]; 40 ppm (marked *)): 98* %; Test J disease control rating ([5]; 40 ppm (marked *)): 98* %; Test F disease control rating ([6]; 40 ppm (marked *)): 82* %; Test G disease control rating ([7]; 40 ppm (marked *)): 98* %
